The values below come from patent publication US20230255939A1, “Antimicrobial Agent for Non-Human Animal” (ISHIHARA SANGYO KAISHA, LTD, priority 2020, published 2023).

Each structure is given as a SMILES string.

This experiment deals with Malassezia pachydermatis (ATCC14522 strain). Kind of experiment: Malassezia otitis externa effect test (dog) (Test Example 3). It is filed as in vivo, dog (Beagle). More on the design: Total score (redness, earwax, itching, rash) Immediately before treatment / Total score (redness, earwax, itching, rash) 7 Days after treatment: scale not given here. Conditions: for Microbial count (cfu/ml) 7 Days after treatment: 500 ppm agent solution for 1 minute; for Microbial count (cfu/ml) Immediately before treatment: baseline before 500 ppm agent solution; for Total score (redness, earwax, itching, rash) 7 Days after treatment: 5 mL of 500 ppm agent solution for 1 minute; for Improvement rate (%) of microbial count / Improvement rate (%) of symptom total score: 500 ppm for 1 minute, 7 days after treatment; for Total score (redness, earwax, itching, rash) Immediately before treatment: baseline 7 days after inoculation, before 500 ppm agent solution. On the procedure:
Test Example 3: Malassezia Otitis Externa Effect Test (Dog) Test Variety: Beagle (19 to 20-Month-Old)
Test Microbial Strain: Malassezia Pachydermatis (ATCC14522 Strain)
A colony of the Malassezia microbe pre-cultured (7 days, 30° C.) on a Sabouraud agar medium was suspended in sterilized physiological saline (microbial concentration of 1.0 × 10^6 cells/mL), and 0.1 mL of the resulting suspension was inoculated into both ears of the test animal. 7 Days after the inoculation, both ears were filled with 5 mL of an agent solution (sterilized physiological saline solution supplemented with 5% DMSO) prepared to have a concentration of the test compound of 500 ppm, and after 1 minute, thoroughly washed with sterilized physiological saline solution.
At the same time, the number of the Malassezia microbe present inside the ears of the sample was also investigated by the following method.
The surface of the ear canal was scraped three times using a cotton swab to collect the microbe, and the collected microbe was suspended in 1 mL of PBS (containing 8 g of sodium chloride, 2.9 g of disodium hydrogen phosphate, 0.2 g of potassium chloride, and 0.2 g of potassium dihydrogen phosphate in 1000 mL) supplemented with 1% v/v of Tween80 (polyoxyethylene sorbitan monooleate: manufactured by Kanto Chemical Co., Ltd.) together with the cotton swab. The resulting suspension was serially diluted 10-fold with the PBS, and 0.1 mL thereof was applied to a CHROMagar Malassezia/Candida medium (trade name; peptone, special enzyme substrate mixture, chloramphenicol, olive oil, agar) and cultured at 30° C. for 4 days. After that, the colonies having a pink to purple color were counted, the microbial count score was calculated, and the improvement rate was determined.

`Cc1cc(-c2nc(C#N)[nH]c2Cl)ccc1Cl` [Compound No. 7, 5-chloro-4-(4-chloro-3-methylphenyl)-1H-imidazole-2-carbonitrile]: under “left ear canal swab”, the “Microbial count (cfu/ml) 7 Days after treatment” value (shortened to “Microbial count (cfu/ml) 7 Days”) worked out at 20 cfu/ml and the “Microbial count (cfu/ml) Immediately before treatment” value amounted to 480 cfu/ml. For the setting “left ear”, the “Total score (redness, earwax, itching, rash) 7 Days after treatment” value (“Total score … after treatment” below) worked out at 0; the “Improvement rate (%) of microbial count” value is 95.8%; the “Improvement rate (%) of symptom total score” value came to 100%; the “Total score (redness, earwax, itching, rash) Immediately before treatment” value is 3. Moreover, where the note is “right ear canal swab”, the “Microbial count (cfu/ml) 7 Days” value is 30 cfu/ml and the “Microbial count (cfu/ml) Immediately before treatment” value was determined as 160 cfu/ml. For the same compound, where the note is “right ear”, the “Total score … after treatment” value is listed as 0; the “Improvement rate (%) of microbial count” value was 81.3%; the “Improvement rate (%) of symptom total score” value came out at 100%; the “Total score (redness, earwax, itching, rash) Immediately before treatment” value is on record as 3.
In the case of `Cc1ccc(-c2nc(C#N)n(O)c2Cl)cc1` [Compound No. 9, 5-chloro-1-hydroxy-4-(4-methylphenyl)-1H-imidazole-2-carbonitrile], under “left ear canal swab”, the “Microbial count (cfu/ml) 7 Days” value came to 20 cfu/ml and the “Microbial count (cfu/ml) Immediately before treatment” value is recorded as 1,100 cfu/ml. Moreover, for the setting “left ear”, the “Total score … after treatment” value is reported as 1; the “Improvement rate (%) of microbial count” value was 98.2%; the “Improvement rate (%) of symptom total score” value is listed as 67%; the “Total score (redness, earwax, itching, rash) Immediately before treatment” value is given as 3. Also, where the note is “right ear canal swab”, the “Microbial count (cfu/ml) 7 Days” value is on record as 30 cfu/ml and the “Microbial count (cfu/ml) Immediately before treatment” value is given as 1,600 cfu/ml. For the same compound, for the setting “right ear”, the “Total score … after treatment” value was 1; the “Improvement rate (%) of microbial count” value worked out at 98.1%; the “Improvement rate (%) of symptom total score” value is reported as 67%; the “Total score (redness, earwax, itching, rash) Immediately before treatment” value came out at 3.
